Converted amounts (≈) assume the structure as drawn.
Key:
pig pancreas esterase = assay: esterase-inhibiting activity, crude pig pancreas lipase preparation with p-nitrophenyl acetate as substrate; type: biochemical; settings: for ID50, dose giving 50% inhibition to esterase: p-nitrophenyl acetate substrate, pH 7.0, 20° C., 30 minutes, pure products; for IC50: pig pancreas esterase, p-nitrophenyl acetate as the substrate, read-out: level giving 50% inhibition of the esterase
Method: Thus, a commercially available, crude lipase preparation obtained from pig pancreas is dissolved to a concentration of 0.5% (by weight) in a 0.05M phosphate buffered solution (pH 7.0) containing 0.2% "Triton X-100" (a trade name of an emulsifier consisting of a polyethyleneglycol alkylphenylether, a product of Rohm & Haas Co., U.S.A.). This lipase solution (0.03 ml), 2.92 ml of 0.05 M phosphate buffered solution (pH 7.0) and 0.025 ml of a solution containing a sample of the new compound to be assayed are mixed together, and the resulting mixture (2.975 ml) is warmed at 20° C. for 3 minutes and then admixed with 0.025 ml of a solution containing 10 mg/ml of p-nitrophenyl acetate in methanol to start the reaction of p-nitrophenyl acetate with lipase. After the enzymatic reaction is effected at 20° C. for 30 minutes, absorbance (a) at 400 nm of the resulting reaction solution is measured. On the other hand, absorbance (b) at 400 nm of a control reaction solution obtained from the blank test using the 0.05M phosphate buffered solution not containing the new compound to be assayed is measured in the same way as above. Degree (%) of inhibition to esterase is calculated according to the following equation: [formula]

storage stability = type: physicochemical
Excerpt: In contrast, the new compound, tetrahydroesterastin is fairly stable so that it can be stored in the form of a powder as such for a long time of 1 year or more without lowering its activity.

[1] = system: cells forming humoral antibody; settings: background statement; cited from earlier work
cell-mediated immunity = settings: background statement; cited from earlier work
[2] = system: inflammation caused by carrageenin; settings: background statement; cited from earlier work
cholesterol esterase = cholesterol esterase inhibition, cholesterol acetate as substrate, liberated cholesterol determined; type: biochemical; settings: 37° C., 3 minutes; for cholesterol esterase-inhibiting activity relative to the parent esterastin: printed as 3-fold and 20 times higher
Excerpt: Furthermore, the new compounds of this invention all have advantageously a remarkably higher activity of inhibiting cholesterol esterase than the parent esterastin.

[3] = system: esterase of pig pancrease; settings: cited from earlier work

| ID50, dose giving 50% inhibition to esterase (pig pancreas esterase) [ng/mL] | stability on storage (in words) (storage stability) | IC50 (pig pancreas esterase) [nM] | cholesterol esterase-inhibiting activity relative to the parent esterastin (cholesterol esterase) | SMILES | also measured |
| --- | --- | --- | --- | --- | --- |
| 0.2 (≈ 0.000395 µM) | fairly unstable | – | – | CCCCCC=CCC=CCC(CC1OC(=O)C1CCCCCC)OC(=O)C(CC(N)=O)NC(C)=O (centres unmarked) [esterastin] | effect on number of cells forming humoral antibody [1]: reduce the number of the cells forming humoral antibody; effect on cell-mediated immunity (cell-mediated immunity): suppress the cell-mediated immunity; effect on inflammation caused by carrageenin [2]: inhibits the inflammation caused by carrageenin |
| 7 (≈ 0.02 µM) | – | 20 | about 20 fold | CCCCCC=CCC=CCC(O)CC1OC(=O)C1CCCCCC (centres unmarked) [3,5-di-hydroxy-2-hexylhexadeca-7,10-dienoic 1,3-lactone] | cholesterol esterase-inhibiting activity relative to tetrahydroesterastin (cholesterol esterase): about 7 times |
| 9 (≈ 0.0254 µM) | – | 25 | – | CCCCCCCCCCCC(O)CC1OC(=O)C1CCCCCC (centres unmarked) [3,5-di-hydroxy-2-hexylhexadecanoic 1,3-lactone] | – |

The remaining lines, values behind:

| SMILES | ID50, dose giving 50% inhibition to esterase (pig pancreas esterase) [ng/mL] | stability on storage (in words) (storage stability) | IC50 (pig pancreas esterase) [nM] | cholesterol esterase-inhibiting activity relative to the parent esterastin (cholesterol esterase) | also measured |
| --- | --- | --- | --- | --- | --- |
| CCOP(=O)(OCC)Oc1ccc([N+](=O)[O-])cc1 [paradoxon] | – | – | – | – | inhibition of the esterase of pig pancreas (in words) [3]: inhibit the esterase |
| CCCCCCCCCCCC(CC1OC(=O)C1CCCCCC)OC(=O)C(CC(N)=O)NC(C)=O (centres unmarked) [tetrahydroesterastin] | 3.3 (≈ 0.00646 µM) | fairly stable | 6.4 | about 3 fold | storage time as powder without lowering its activity (storage stability; stored in the form of a powder as such): ≥ 1 year |

Reference: patent US4202824A, “Physiologically active derivatives of esterastin” (Zaidan Hojin Biseibutsu Kagaku Kenkyu Kai, priority 1978, dated 1980)
